Source: ChEMBL document CHEMBL4229455, “Synthesis and anticancer activity of novel bisindolylhydroxymaleimide derivatives with potent GSK-3 kinase inhibition” (Bioorg Med Chem, 2018)

How the values were obtained:
KM12 = test: Cytotoxicity against human KM12 cells assessed as cell growth at 10 uM after 48 hrs by SRB assay relative to control; format: functional; details: KM12, 48 h, read-out: Activity
IGROV-1 [1] = test: Cytotoxicity against human IGROV1 cells assessed as cell growth at 10 uM after 48 hrs by SRB assay relative to control; format: functional; details: IGROV-1, 48 h, read-out: Activity
LOX IMVI [2] = test: Cytotoxicity against human LOXIMVI cells assessed as cell growth at 10 uM after 48 hrs by SRB assay relative to control; format: functional; details: read-out: Activity
HCT-116 = test: Cytotoxicity against human HCT116 cells assessed as cell growth at 10 uM after 48 hrs by SRB assay relative to control; format: functional; details: HCT-116, 48 h, read-out: Activity
SNB-75 = test: Cytotoxicity against human SNB75 cells assessed as cell growth at 10 uM after 48 hrs by SRB assay relative to control; format: functional; details: SNB-75, 48 h, read-out: Activity
SF-268 = test: Cytotoxicity against human SF268 cells assessed as cell growth at 10 uM after 48 hrs by SRB assay relative to control; format: functional; details: SF-268, 48 h, read-out: Activity
[3] = molecular target: T1, Serine/threonine-protein kinase pim-1 (Homo sapiens, UniProt P11309); test: Inhibition of recombinant full length human PIM1 expressed in bacteria assessed as residual activity at 10 uM using histone H1 as substrate in presence of [gamma-33P]ATP
Target sequence in this assay (P11309 whole entry, looked up): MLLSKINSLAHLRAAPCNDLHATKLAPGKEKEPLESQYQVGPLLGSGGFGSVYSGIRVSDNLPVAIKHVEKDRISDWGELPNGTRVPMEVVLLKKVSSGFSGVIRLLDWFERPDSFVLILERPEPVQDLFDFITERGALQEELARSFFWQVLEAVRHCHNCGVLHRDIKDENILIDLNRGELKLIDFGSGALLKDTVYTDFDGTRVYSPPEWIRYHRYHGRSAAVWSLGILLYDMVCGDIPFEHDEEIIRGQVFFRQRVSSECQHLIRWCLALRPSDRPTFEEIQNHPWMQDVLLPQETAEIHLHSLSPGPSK

HCC 2998 = test: Cytotoxicity against human HCC2998 cells assessed as cell growth at 10 uM after 48 hrs by SRB assay relative to control; format: functional; details: HCC 2998, 48 h, read-out: Activity
Sus scrofa domesticus = organism: Sus scrofa domesticus; test: Inhibition of domestic porcine brain full length […] assessed as residual activity at 10 uM using RRKHAAIGSpAYSITA as substrate in presence of [gamma-33P]ATP
DU-145 = test: Cytotoxicity against human DU145 cells assessed as cell growth at 10 uM after 48 hrs by SRB assay relative to control; format: functional; details: DU-145, 48 h, read-out: Activity
HT-29 = test: Cytotoxicity against human HT-29 cells assessed as cell growth at 10 uM after 48 hrs by SRB assay relative to control; format: functional; details: HT-29, 48 h, read-out: Activity
UO-31 = test: Cytotoxicity against human UO31 cells assessed as cell growth at 10 uM after 48 hrs by SRB assay relative to control; format: functional; details: UO-31, 48 h, read-out: Activity
SK-MEL-28 [4] = test: Cytotoxicity against human SK-MEL-28 cells assessed as cell growth at 10 uM after 48 hrs by SRB assay relative to control; format: functional; details: SK-MEL-28, 48 h, read-out: Activity
SF-539 = test: Cytotoxicity against human SF539 cells assessed as cell growth at 10 uM after 48 hrs by SRB assay relative to control; format: functional; details: SF-539, 48 h, read-out: Activity
M14 = test: Cytotoxicity against human M14 cells assessed as cell growth at 10 uM after 48 hrs by SRB assay relative to control; format: functional; details: M14, 48 h, read-out: Activity
NCI-H23 = test: Cytotoxicity against human NCI-H23 cells assessed as cell growth at 10 uM after 48 hrs by SRB assay relative to control; format: functional; details: NCI-H23, 48 h, read-out: Activity
NCI/ADR-RES = test: Cytotoxicity against human NCI-ADR-RES cells assessed as cell growth at 10 uM after 48 hrs by SRB assay relative to control; format: functional; details: read-out: Activity
[5] = Inhibition of domestic porcine brain full length […] using RRKHAAIGSpAYSITA as substrate in presence of [gamma-33P]ATP; parameters: species or system Sus scrofa domesticus
[6] = molecular target: CDK9/cyclin T1 (Homo sapiens) (UniProt O60563+P50750); test: Inhibition of recombinant full length human CDK9/cyclin T expressed in baculovirus infected Sf9 insect cells assessed as residual activity at 10 uM using YSPTSPSYSPTSPSYSPTSPSKKKK as substrate in presence of [gamma-33P]ATP
[7] = molecular target: T1, Serine/threonine-protein kinase pim-1; test: Inhibition of recombinant full length human PIM1 expressed in bacteria using histone H1 as substrate in presence of [gamma-33P]ATP
Target sequence in this assay (P11309 whole entry): as the sequence (P11309 whole entry, looked up) above

EKVX = test: Cytotoxicity against human EKVX cells assessed as cell growth at 10 uM after 48 hrs by SRB assay relative to control; format: functional; details: read-out: Activity
Malme-3M = test: Cytotoxicity against human MALME-3M cells assessed as cell growth at 10 uM after 48 hrs by SRB assay relative to control; format: functional; details: read-out: Activity
SF-295 = test: Cytotoxicity against human SF295 cells assessed as cell growth at 10 uM after 48 hrs by SRB assay relative to control; format: functional; details: SF-295, 48 h, read-out: Activity
[8] = molecular target: Dual specificity tyrosine-phosphorylation-regulated kinase 1A (Rattus norvegicus, UniProt Q63470); test: Inhibition of recombinant rat DYRK1A kinase domain expressed in bacteria using KKISGRLSPIMTEQ as substrate in presence of [gamma-33P]ATP
MDA-MB-231 = test: Cytotoxicity against human MDA-MB-231 cells assessed as cell growth at 10 uM after 48 hrs by SRB assay relative to control; format: functional; details: MDA-MB-231, 48 h, read-out: Activity
HCT-15 = test: Cytotoxicity against human HCT15 cells assessed as cell growth at 10 uM after 48 hrs by SRB assay relative to control; format: functional; details: HCT-15, 48 h, read-out: Activity
UACC-257 = test: Cytotoxicity against human UACC257 cells assessed as cell growth at 10 uM after 48 hrs by SRB assay relative to control; format: functional; details: UACC-257, 48 h, read-out: Activity
A498 = test: Cytotoxicity against human A498 cells assessed as cell growth at 10 uM after 48 hrs by SRB assay relative to control; format: functional; details: A498, 48 h, read-out: Activity
[9] = molecular target: Receptor-interacting serine/threonine-protein kinase 3 (Homo sapiens, UniProt Q9Y572); test: Inhibition of recombinant full length human RIPK3 expressed in baculovirus infected Sf9 insect cells using MBP as substrate in presence of [gamma-33P]ATP
Receptor-interacting serine/threonine-protein kinase 3, sequence (Q9Y572 whole entry): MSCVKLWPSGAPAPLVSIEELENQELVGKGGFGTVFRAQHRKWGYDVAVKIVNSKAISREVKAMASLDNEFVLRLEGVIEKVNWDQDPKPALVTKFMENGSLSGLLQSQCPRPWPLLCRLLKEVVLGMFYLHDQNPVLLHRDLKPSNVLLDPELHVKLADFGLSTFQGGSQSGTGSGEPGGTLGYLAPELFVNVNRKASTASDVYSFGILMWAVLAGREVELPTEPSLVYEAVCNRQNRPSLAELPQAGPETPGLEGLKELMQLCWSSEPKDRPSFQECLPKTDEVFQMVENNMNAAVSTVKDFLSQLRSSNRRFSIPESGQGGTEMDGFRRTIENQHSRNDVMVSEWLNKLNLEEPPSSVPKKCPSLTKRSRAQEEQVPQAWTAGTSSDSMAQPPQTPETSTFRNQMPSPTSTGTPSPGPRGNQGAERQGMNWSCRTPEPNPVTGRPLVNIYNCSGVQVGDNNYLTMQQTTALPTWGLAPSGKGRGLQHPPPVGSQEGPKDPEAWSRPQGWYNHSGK

SW-620 [10] = test: Cytotoxicity against human SW620 cells assessed as cell growth at 10 uM after 48 hrs by SRB assay relative to control; format: functional; details: SW-620, 48 h, read-out: Activity
K562 = test: Cytotoxicity against human K562 cells assessed as cell growth at 10 uM after 48 hrs by SRB assay relative to control; format: functional; details: K562, 48 h, read-out: Activity
SK-MEL-28 [11] = test: Cytotoxicity against human SK-MEL-28 cells assessed as cell growth at 1 uM after 48 hrs by SRB assay relative to control; format: functional; details: SK-MEL-28, 48 h, read-out: Activity
LOX IMVI [12] = test: Cytotoxicity against human LOXIMVI cells assessed as cell growth at 0.01 uM after 48 hrs by SRB assay relative to control; format: functional; details: read-out: Activity
IGROV-1 [13] = test: Cytotoxicity against human IGROV1 cells assessed as cell growth at 0.01 uM after 48 hrs by SRB assay relative to control; format: functional; details: IGROV-1, 48 h, read-out: Activity
SW-620 [14] = test: Cytotoxicity against human SW620 cells assessed as cell growth at 0.01 uM after 48 hrs by SRB assay relative to control; format: functional; details: SW-620, 48 h, read-out: Activity

SMILES | growth at 10 µM (KM12) [%] | growth at 10 µM (IGROV-1 [1]) [%] | growth at 10 µM (LOX IMVI [2]) [%] | growth at 10 µM (HCT-116) [%] | growth at 10 µM (SF-268) [%] | Activity [3] [%] | growth at 10 µM (HCC 2998) [%] | Activity (Sus scrofa domesticus) [%] | growth at 10 µM (DU-145) [%] | growth at 10 µM (HT-29) [%] | growth at 10 µM (UO-31) [%] | growth at 10 µM (SK-MEL-28 [4]) [%] | growth at 10 µM (M14) [%] | growth at 10 µM (NCI-H23) [%] | growth at 10 µM (NCI/ADR-RES) [%] | IC50 [5] [µM] | Activity [6] [%] | IC50 [7] [µM] | growth at 10 µM (Malme-3M) [%] | growth at 10 µM (SF-295) [%] | further results
N#CCCCCCn1cc(C2=C(c3cn(CCCCCC#N)c4ccccc34)C(=O)NC2=O)c2ccccc21 | 81 | 124 | 69.5 | 65.9 | 107 | 54 | 107 | 108 | 100 | 84.4 | 72.7 | 133 | 125 | 97.1 | 79 | > 10 | 9 | > 10 | 121 | 66.2 | growth at 10 µM (SNB-75): 47.2%; growth at 10 µM (SF-539): 53.7%; growth at 10 µM (EKVX): 86.5%; IC50 [8]: 0.62 µM; growth at 10 µM (MDA-MB-231): 81.4%; growth at 10 µM (HCT-15): 69.4%; growth at 10 µM (UACC-257): 136%; growth at 10 µM (A498): 54.5%; IC50 [9]: > 10 µM; growth at 10 µM (SW-620 [10]): 108%
O=C1C2=C(C(=O)N1O)c1cn(c3ccccc13)CCCCCCn1cc2c2ccccc21 | 107 | 113 | 79.3 | 115 | 105 | 68 | 110 | 103 | 108 | 121 | 80.3 | 108 | 102 | 99.7 | 108 | > 10 | 87 | > 10 | 105 | 107 | growth at 10 µM (SNB-75): 91.4%; growth at 10 µM (SF-539): 95.7%; growth at 10 µM (EKVX): 103%; IC50 [8]: > 10 µM; growth at 10 µM (MDA-MB-231): 104%; growth at 10 µM (HCT-15): 108%; growth at 10 µM (K562): 109%; growth at 10 µM (UACC-257): 106%; growth at 10 µM (A498): 88.3%; IC50 [9]: > 10 µM; growth at 10 µM (SW-620 [10]): 98.6%
N#CCCCCCn1cc(C2=C(c3cn(CCCCCC#N)c4ccccc34)C(=O)N(O)C2=O)c2ccccc21 | 25 to 65.7 | 28 to 66.8 | 19 to 30.5 | 21 to 63.3 | 50 to 80.6 | 78 | 59 to 99.6 | 67 | 80 to 101 | 51 to 92.4 | 23 to 43.8 | 35 to 83.3 | 28 to 73.4 | 38 to 76.9 | 62 to 96.3 | > 10 | 55 | > 10 | 55 | 35 to 85 | growth at 10 µM (SNB-75): 14 to 67.7%; growth at 1 µM (SK-MEL-28 [11]): 103%; growth at 0.01 µM (LOX IMVI [12]): 94%; IC50 [8]: > 10 µM; growth at 0.01 µM (IGROV-1 [13]): 104%; growth at 10 µM (MDA-MB-231): 31 to 40.3%; growth at 10 µM (HCT-15): 21 to 70.8%; growth at 10 µM (K562): 15 to 33.9%; growth at 10 µM (UACC-257): 56 to 82.1%; growth at 10 µM (A498): 16 to 69.2%; growth at 0.01 µM (SW-620 [14]): 100%; IC50 [9]: > 10 µM; growth at 10 µM (SW-620 [10]): 31 to 62.5%
Cn1cc(C2=C(c3cn(C)c4ncccc34)C(=O)NC2=O)c2ccccc21 | 8.78 to 12 | 8 to 70.8 | 16 to 41 | 15 to 21.9 | 27 to 50.2 | 1 | 30 to 58.9 | 76 | 36 to 63.2 | 2.28 to 5 | 12 to 22.6 | 8 to 51.3 | 7 to 17.5 | 30 to 49.3 | 34 to 53.5 | > 10 | -10 | 2 | 20.3 to 29 | 9.52 | growth at 1 µM (SK-MEL-28 [11]): 90%; growth at 0.01 µM (LOX IMVI [12]): 101%; growth at 10 µM (EKVX): 9 to 62.7%; IC50 [8]: > 10 µM; growth at 0.01 µM (IGROV-1 [13]): 98%; growth at 10 µM (MDA-MB-231): 35 to 56.3%; growth at 10 µM (HCT-15): 21 to 33.4%; growth at 10 µM (K562): 16 to 19.9%; growth at 10 µM (UACC-257): 35 to 84.8%; growth at 0.01 µM (SW-620 [14]): 96%; IC50 [9]: > 10 µM; growth at 10 µM (SW-620 [10]): 12.9 to 20%
